The record followed here is patent publication EP1044015B1, “FORMULATIONS FOR AMYLIN AGONIST PEPTIDES WITH INSULIN” (AMYLIN PHARMACEUTICALS, INC., priority 1998, dated 2008).

The data set in a line: Adsorption onto glass container. It counts as physicochemical. Conditions: liquid form. An excerpt:
However, with regard to amylin agonists or amylins which do have such a tendency, a surfactant should be used in their formulation which formulations should then be lyophilized. Surfactants frequently cause denaturation of protein, both of hydrophobic disruption and by salt bridge separation. Relatively low concentrations of surfactant exert a potent denaturing activity, because of the strong interactions between surfactant moieties and the reactive sites on proteins. However, judicious use of this interaction can stabilize proteins against interfacial or surface denaturation. Surfactants which could further stabilize the peptide may optionally be present in the range of about 0.001 to 0.3% (w/v) of the total formulation and include polysorbate 80 (i.e., polyoxyethylene(20) sorbitan monooleate), CHAPS° (i.e., 3-[(3-cholamidopropyl) dimethylammonio] 1-propanesulfonate), Brij° (e.g., Brij 35, which is (polyoxyethylene (23) lauryl ether), poloxamer, or another non-ionic surfactant.

As to ^25,28,29Pro-h- amylin [Pramlintide], the “tendency to adsorb onto the glass” value was “does not have a tendency to adsorb onto the glass”.
